Data on 22 compounds can be found in US8980904B2, “Heterocyclic substituted pyrimidine compound” (Xuanzhu Pharma Co., Ltd., priority 2011, dated 2015).

The target of one data set is PDE-5A (Homo sapiens (Human), UniProt O76074). The data set is described as follows: Caliper Mobility-Shift PDE-5A Assay. The class given is biochemical. As for the experimental part:
Caliper Mobility-Shift PDE-5A Assay:
A sample to be tested is precisely weighed, dissolved by adding DMSO, mixed sufficiently to form 10 mM solution.
The maximum final concentration of the compound was 10 μM. After incubation at 30° C. for 1 h, 20 μl of 70 μM EDTA was added to terminate reaction. Substrate and products were separated and analyzed by electrophoresis. Conversion rate was calculated by Caliper's Reviewer software, and inhibition rate was calculated by the following formulation, and IC50 was calculated from inhibition rate using Prism 5.0. Inhibition rate=[conversion rate (ZPE)−conversion rate (sample)]×100/[conversion rate (ZPE)−conversion rate (HPE)]
Notation: HPE: blank control without adding enzyme; ZPE: blank control without adding compound.

A short description of data set [1]: Determination of half-life in SD rats (IV and PO, plasma LC-MS/MS). As to conditions: Sprague-Dawley (SD), rat.
Description: Avanafil as control drug and the compounds of the present invention (self-made) were dissolved with suitable solvents.
Instruments: API4000 LC-MS/MS
Chromatography column: Agilent XDB C18 (2.1×50 mm, 5 μm)
Blood sampling in rats: animals were fixed, tails were heated with water-bath at 10 min before each time point, about 100 μl of blood was collected via caudal vein, and the collected blood samples were placed in heparin sodium-containing anticoagulation tubes. The blood samples were centrifuged at 4° C. and 8,000 rpm for 6 min to obtain blood plasma samples, in which the blood plasma samples should be prepared with 30 min after blood sampling. The blood plasmas were stored in refrigerator with −80° C.
(1) Samples to be tested were taken out from refrigerator (−80° C.), melt at room temperature, then subjected to volution for 5 min;
(2) 20 μl of sample was precisely moved to 1.5 ml centrifuge tube;
(3) 200 μl of internal standard solution was added;
(4) After 5 min of volution, 5 min of centrifugation (12,000 rpm) was carried out;
(5) 100 μl of supernatant was precisely taken, 100 μl of water was added, subjected to volution for 5 min, and analyzed by LC-MS/MS.
Concentrations of samples to be tested (blood plasma samples) were the output results of Analyst 1.5.1 of AB SCIEX (Shanghai Aibocaisi Analytical Instruments Trading Co., Ltd.). Mean values, standard deviations and parameters such as variable coefficients were calculated by Microsoft Excel (when parameters were directly given by Analyst 1.5.1, they were not calculated). PK parameters were calculated using Pharsight Phoenix 6.1 software.
The test system of a further data set is New Zealand rabbits. Briefly: Effects on penis length (AUC) by intravenous administration in New Zealand rabbits. The format is in vivo. As to conditions: 10 mg/kg IV, sodium nitroprusside 0.2 mg/kg IV 5 min after administration. An excerpt: New Zealand rabbits were subjected to adapt environment, and the rabbits were catched everyday before experiment so that the rabbits were used to repeated catching operation, then administration and stimulation were lunched. The animals were randomly divided according to bodyweight, samples to be tested were separately dissolved with solvent (Table 3 group: Avanafil and Compound 19 were separately dissolved with 5% DMSO+30% Cremophor EL+65% water for injection; Table 4 group, Table 5 group: Avanafil, Compound 14, Compound 17 and Compound 7 were separately dissolved with 45% DMA+20% Cremophor EL+35% water for injection; Table 6 group: Avanafil and Compound 15 were separately dissolved with 30% DMF+50% PEG-400+20% water for injection), corresponding samples to be tested were injected via ear flange veins of these groups, Table 3, Table 4, Table 5, Table 6 groups all had dose of 10 mg/kg, administration volume of 2 ml/kg, 0.2 mg/kg of sodium nitroprusside was intravenously injected in administration volume of 0.5 ml/kg after 5 min of administration.
Lengths of penis of rabbits were measured by digital vernier caliper separately before administration and at 5, 10, 15, 30, 50, 60, 90 and 120 min after administration. During each measurement, touching between penis and vernier caliper should be avoided.

For data set [2] the following is noted: cited from earlier work.
The next data set relates to PDE-6. As to conditions: background art, cited from earlier work.
The target of the next data set is PDE-11 (Homo sapiens (Human), UniProt Q9HCR9). The conditions noted are these: background art; cited from earlier work.
The mark [3] stands for this setting: test compound, read-out: IC50 values for PDE-5A, PDE-5A.
Setting [4] is: Table 6 group, 30% DMF+50% PEG-400+20% water for injection.
[5] abbreviates: Table 4 group, 45% DMA+20% Cremophor EL+35% water for injection.
Setting [6] is: Table 5 group, 45% DMA+20% Cremophor EL+35% water for injection.
[7] abbreviates: Table 3 group, 5% DMSO+30% Cremophor EL+65% water for injection.

SMILES strings stand for the structures. “And” between values parts separate entries of the source, which are not always exact repeats. Equal entries are not always repeated. Where two headings read alike, the source gives them in different places.

Chain of PDE-11 (Q9HCR9 whole entry): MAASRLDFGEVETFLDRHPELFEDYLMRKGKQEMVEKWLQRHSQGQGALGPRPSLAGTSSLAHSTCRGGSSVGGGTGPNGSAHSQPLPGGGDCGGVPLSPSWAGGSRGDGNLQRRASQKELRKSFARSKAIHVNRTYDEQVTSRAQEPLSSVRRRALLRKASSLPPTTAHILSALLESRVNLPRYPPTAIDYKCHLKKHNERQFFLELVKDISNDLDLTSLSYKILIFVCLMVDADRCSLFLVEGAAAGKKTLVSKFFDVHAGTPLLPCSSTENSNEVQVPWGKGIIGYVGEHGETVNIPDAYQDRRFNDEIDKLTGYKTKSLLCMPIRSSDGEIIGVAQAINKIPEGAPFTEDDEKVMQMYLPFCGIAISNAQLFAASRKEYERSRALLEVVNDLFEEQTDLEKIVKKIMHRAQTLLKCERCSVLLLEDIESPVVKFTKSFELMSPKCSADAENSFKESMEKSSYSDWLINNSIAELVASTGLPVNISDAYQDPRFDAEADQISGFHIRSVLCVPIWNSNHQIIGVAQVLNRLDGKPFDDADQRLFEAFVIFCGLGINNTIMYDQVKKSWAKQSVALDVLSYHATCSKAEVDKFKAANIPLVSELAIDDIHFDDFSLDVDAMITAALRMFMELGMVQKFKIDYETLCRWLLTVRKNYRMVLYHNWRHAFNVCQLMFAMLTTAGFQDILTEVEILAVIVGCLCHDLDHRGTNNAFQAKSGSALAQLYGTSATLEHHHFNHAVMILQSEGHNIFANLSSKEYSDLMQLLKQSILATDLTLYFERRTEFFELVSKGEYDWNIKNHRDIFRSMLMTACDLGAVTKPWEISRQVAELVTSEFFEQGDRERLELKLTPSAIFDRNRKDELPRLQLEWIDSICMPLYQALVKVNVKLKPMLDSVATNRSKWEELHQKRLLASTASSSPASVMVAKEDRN

Regarding `COc1ccc(COc2nc(N3CCC4(CC4)C3)ncc2C(=O)NCc2ncccn2)cc1Cl` [Compound 18, 4-(3-chloro-4-methoxybenzyloxy)-N-(pyrimidin-2-ylmethyl)-2-(5-azaspiro[2.4]heptan-5-yl)-pyrimidine-5-carboxamide], on PDE-5A (setting [3]), the IC50 came out at 1.44 nM.
By half-life is commonly meant how long it takes for the measured level to halve. The low end stands for rapid decline, the high end for slow decline. For the compound `COc1ccc(COc2nc(N3CCC4(CC4)C3)ncc2C(=O)NCc2ccccc2)cc1Cl` [Compound 15, N-benzyl-4-(3-chloro-4-methoxybenzyloxy)-2-(5-azaspiro[2.4]heptan-5-yl)-pyrimidine-5-carboxamide], the half-life in data set [1] (iv, 1 mg/kg) is 3.32 h. The IC50 at PDE-5A (setting [3]) stood at 0.119 nM. Moreover, the “Effects on penis length, AUC (mm × min)” value with New Zealand rabbits (setting [4]) was 339.3 mm × min.
In data set [1] (iv, 1 mg/kg), `COc1ccc(COc2nc(N3CCC4(CC3)CC4)ncc2C(=O)NCc2ccccc2)cc1Cl` [Compound 10, N-benzyl-4-(3-chloro-4-methoxybenzyloxy)-2-(6-azaspiro[2.5]octan-6-yl)pyrimidine-5-carboxamide] had a half-life of 2.35 h. For the same compound, at PDE-5A (setting [3]), the IC50 amounted to 1.14 nM.
With `CN1CC(=O)N2[C@H](c3ccc4c(c3)OCO4)c3[nH]c4ccccc4c3C[C@@H]2C1=O` [Tadalafil], the “half-life in human body” value in data set [2] was “about 16 h”.
On to `COc1ccc(COc2nc(N3CCC4(CC4)C3)ncc2C(=O)NCc2ccc(F)cc2)cc1Cl` [Compound 17, 4-(3-chloro-4-methoxybenzyloxy)-N-(4-fluorobenzyl)-2-(5-azaspiro[2.4]heptan-5-yl)pyrimidine-5-carboxamide], for which the half-life is 1.64 h in data set [1] (iv, 1 mg/kg) and 3.26 h in data set [1] (po, 2 mg/kg). The IC50 on PDE-5A (setting [3]) came out at 2.08 nM. Besides, in the data set with New Zealand rabbits (setting [5]), the “Effects on penis length, AUC (mm × min)” value is 300.9 mm × min.
Regarding `COc1ccc(COc2nc(N3CCC4(CC3)CC4)ncc2C(=O)NCCN2CCOCC2)cc1Cl` [Compound 11, 4-(3-chloro-4-methoxybenzyloxy)-N-(2-morpholinylethyl)-2-(6-azaspiro[2.5]octan-6-yl)pyrimidine-5-carboxamide], the IC50 on PDE-5A (setting [3]) amounted to 0.935 nM.
Consider `COc1ccc(COc2nc(N3CC4CC4C3)ncc2C(=O)NCc2ccccn2)cc1Cl` (stereo not drawn) [Compound 4, 2-(3-azadicyclo[3.1.0]hexan-3-yl)-4-(3-chloro-4-methoxybenzyloxy)-N-(pyridin-2-ylmethyl)pyrimidine-5-carboxamide], for which the half-life in data set [1] (iv, 1 mg/kg) was 0.66 h. Besides, the IC50 at PDE-5A (setting [3]) is 0.028 nM.
Taken in the same sequence, the figures for `COc1ccc(COc2nc(N3CCC4(CC3)CC4)ncc2C(=O)NCc2ncccn2)cc1Cl` [Compound 8, 4-(3-chloro-4-methoxybenzyloxy)-N-(pyrimidin-2-ylmethyl)-2-(6-azaspiro[2.5]octan-6-yl)pyrimidine-5-carboxamide] were 1.34 h and 0.476 nM.
As to `COc1ccc(COc2nc(N3CCC4(CC3)CC4)ncc2C(=O)NCc2ccccn2)cc1Cl` [Compound 9, 4-(3-chloro-4-methoxybenzyloxy)-N-(pyridin-2-ylmethyl)-2-(6-azaspiro[2.5]octan-6-yl)pyrimidine-5-carboxamide], the IC50 on PDE-5A (setting [3]) came out at 0.186 nM.
As to `COc1ccc(COc2nc(N3CC4CC4C3)ncc2C(=O)N[C@H]2CC[C@H](O)CC2)cc1Cl` (stereo partly drawn) [Compound 7, 2-(3-azadicyclo[3.1.0]hexan-3-yl)-4-(3-chloro-4-methoxy-benzyloxy)-N-[(trans)-4-hydroxycyclohexyl]pyrimidine-5-carboxamide], the half-life is 1.02 h in data set [1] (iv, 2 mg/kg) and 1.59 h in data set [1] (po, 4 mg/kg). Moreover, at PDE-5A (setting [3]), the IC50 came to 0.739 nM. Further, in the data set on New Zealand rabbits (setting [6]), the “Effects on penis length, AUC (mm × min)” value is 191.5 mm × min.
Take `COc1ccc(COc2nc(N3CC4CC4C3)ncc2C(=O)NCc2cnc(C)cn2)cc1Cl` (stereo not drawn) [Compound 5, 2-(3-azadicyclo[3.1.0]hexan-3-yl)-4-(3-chloro-4-methoxy-benzyloxy)-N-[(5-methylpyrazin-2-yl)methyl]pyrimidine-5-carboxamide]: the IC50 on PDE-5A (setting [3]) was 0.529 nM.
On to `COc1ccc(CN=c2[nH]c(N3CCC[C@H]3CO)ncc2C(=O)NCc2ncccn2)cc1Cl` [Avanafil, reference compound], for which the half-life in data set [1] (iv, 2 mg/kg) is 0.53 h; in data set [1] (po, 2 mg/kg), 0.51 h. Further, the “ratio of PDE-6/5” value with PDE-6 (selectivity) was “about 120”. For the same compound, on PDE-11, the “inhibition of PDE-11” value is on record as “does not inhibit PDE-11”. Further, the IC50 at PDE-5A (Avanafil control value given, read-out: IC50 values for PDE-5A, Avanafil/PDE-5A) is 10.8 nM (11×) and 19.2 nM and 12.7 nM (2×) and 17.3 nM (4×). Besides, the “Effects on penis length, AUC (mm × min)” value with New Zealand rabbits (setting [7]) is listed as 155.1 mm × min; in the data set on New Zealand rabbits (setting [5]), 132.3 mm × min; with New Zealand rabbits (setting [6]) it was 168.3 mm × min; in the data set on New Zealand rabbits (setting [4]), 146.4 mm × min. Moreover, in data set [2], the “half-life in human body” value is on record as “about 1.2 h”.
Turning to `CCCc1nc(C)c2c(=O)[nH]c(-c3cc(S(=O)(=O)N4CCN(CC)CC4)ccc3OCC)nn12` [Vardenafil], the “inhibition of PDE-6” value with PDE-6 is given as “inhibit PDE-6 to some extent”.
In the case of `COc1ccc(COc2nc(N3CC4CC4C3)ncc2C(=O)NCc2ccc(F)cc2)cc1Cl` (stereo not drawn) [Compound 6, 2-(3-azadicyclo[3.1.0]hexan-3-yl)-4-(3-chloro-4-methoxy-benzyloxy)-N-(4-fluorobenzyl)pyrimidine-5-carboxamide], the half-life in data set [1] (iv, 1 mg/kg) was 1.74 h. The IC50 on PDE-5A (setting [3]) was 0.075 nM.
`COc1ccc(COc2nc(N3CCC4(CC3)CC4)ncc2C(=O)N[C@H]2CC[C@H](O)CC2)cc1Cl` [Compound 12, 4-(3-chloro-4-methoxybenzyloxy)-N-[(trans)-4-hydroxycyclohexyl]-2-(6-azaspiro[2.5]octan-6-yl)pyrimidine-5-carboxamide]: the half-life in data set [1] (iv, 1 mg/kg) is 1.44 h; in data set [1] (po, 1 mg/kg), 1.94 h. Moreover, the IC50 at PDE-5A (setting [3]) turned out to be 0.719 nM.
`COc1ccc(COc2nc(N3CC4CC4C3)ncc2C(=O)NCc2ccccc2)cc1Cl` (stereo not drawn) [Compound 1, N-benzyl-2-(3-azadicyclo[3.1.0]hexan-3-yl)-4-(3-chloro-4-methoxybenzyloxy) pyrimidine-5-carboxamide]: the half-life in data set [1] (iv, 1 mg/kg) is 3.96 h. The IC50 on PDE-5A (setting [3]) came to 0.172 nM.
For the compound `CCCc1nn(C)c2c(=O)[nH]c(-c3cc(S(=O)(=O)N4CCN(C)CC4)ccc3OCC)nc12` [Sildenafil], the “inhibition of PDE-6” value with PDE-6 is “inhibit PDE-6 to some extent”.
For `COc1ccc(COc2nc(N3CCCC34CC4)ncc2C(=O)N[C@H]2CC[C@H](O)CC2)cc1Cl` [Compound 20, 4-(3-chloro-4-methoxybenzyloxy)-N-[(trans)-4-hydroxycyclohexyl]-2-(4-azaspiro[2.4]heptan-4-yl)pyrimidine-5-carboxamide], in data set [1] (iv, 1 mg/kg), the half-life is 0.87 h.
For `COc1ccc(COc2nc(N3CC4CC4C3)ncc2C(=O)NCc2ncccn2)cc1Cl` (stereo not drawn) [Compound 3, 2-(3-azadicyclo[3.1.0]hexan-3-yl)-4-(3-chloro-4-methoxy-benzyloxy)-N-(pyrimidin-2-ylmethyl)pyrimidine-5-carboxamide], at PDE-5A (setting [3]), the IC50 came to 0.1 nM.
Take `COc1ccc(COc2nc(N3CCC4(CC4)C3)ncc2C(=O)N[C@H]2CC[C@H](O)CC2)cc1Cl` [Compound 19, 4-(3-chloro-4-methoxybenzyloxy)-N-[(trans)-4-hydroxycyclohexyl]-2-(5-azaspiro[2.4]heptan-5-yl)-pyrimidine-5-carboxamide]: the half-life was 1.17 h in data set [1] (iv, 1 mg/kg) and 1.97 h in data set [1] (po, 2 mg/kg). Also, the IC50 at PDE-5A (setting [3]) amounted to 4.08 nM. For the same compound, the “Effects on penis length, AUC (mm × min)” value in the data set on New Zealand rabbits (setting [7]) worked out at 523.3 mm × min.
For `COc1ccc(COc2nc(N3CC4CC4C3)ncc2C(=O)NCCN2CCOCC2)cc1Cl` (stereo not drawn) [Compound 13, 2-(3-azadicyclo[3.1.0]hexan-3-yl)-4-(3-chloro-4-methoxy-benzyloxy)-N-(2-morpholinylethyl)pyrimidine-5-carboxamide], at PDE-5A (setting [3]), the IC50 was determined as 0.213 nM.
In data set [1] (iv, 1 mg/kg), `COc1ccc(COc2nc(N3CCCC34CC4)ncc2C(=O)NCc2ccccc2)cc1Cl` [Compound 14, N-benzyl-4-(3-chloro-4-methoxybenzyloxy)-2-(4-azaspiro[2.4]heptan-4-yl)-pyrimidine-5-carboxamide] showed a half-life of 2.21 h. The IC50 on PDE-5A (setting [3]) came out at 1.98 nM. For the same compound, in the data set with New Zealand rabbits (setting [6]), the “Effects on penis length, AUC (mm × min)” value turned out to be 290.1 mm × min.
